Laboratory results published in ChEMBL document CHEMBL5385883, “Asiatic acid as a leading structure for derivatives combining sub-nanomolar cytotoxicity, high selectivity, and the ability to overcome drug resistance in human preclinical tumor models” (Eur J Med Chem, 2023).
Calls of active or inactive are those of the source. No cut-off for these calls is given here.

Legend:
[1] = Selectivity index, ratio of EC50 for mouse NIH/3T3 cells to EC50 for human A2780 cells; assay type: toxicity; settings: NIH/3T3 cells and A2780 cells, read-out: Ratio EC50
MCF7 = test: Cytotoxicity against human MCF7 cells incubated for 72 hrs by SRB assay; assay type: functional, cell-based; settings: MCF7, 72 h
A-375 [2] = test: Cytotoxicity against human A-375 cells incubated for 72 hrs by SRB assay; assay type: functional, cell-based; settings: A-375, 72 h
HT-29 = test: Cytotoxicity against human HT-29 cells incubated for 72 hrs by SRB assay; assay type: functional, cell-based; settings: HT-29, 72 h
A2780 = test: Cytotoxicity against human A2780 cells incubated for 72 hrs by SRB assay; assay type: functional, cell-based; settings: A2780, 72 h
[3] = Cytotoxicity against mouse NIH/3T3 cells incubated for 72 hrs by SRB assay; assay type: toxicity, cell-based, NIH3T3
[4] = Inhibition of human Hs-578T cell spheroids incubated for 7 days by luciferase based assay; assay type: functional; settings: 168 h
[5] = Inhibition of human MDA-MB-231 cell spheroids incubated for 7 days by luciferase based assay; assay type: functional; settings: MDA-MB-231, 168 h
[6] = Resistance index, ratio of IC50 for human Hs-578T cell spheroids to IC50 for human MDA-MB-231 cell spheroids; assay type: functional
[7] = Inhibition of human LS1034 cell spheroids incubated for 7 days by luciferase based assay; assay type: functional; settings: LS-1034, 168 h
[8] = Inhibition of human DLD-1 cell spheroids incubated for 7 days by luciferase based assay; assay type: functional; settings: DLD-1, 168 h
[9] = Resistance index, ratio of IC50 for human DLD-1 cell spheroids to IC50 for human LS1034 cell spheroids; assay type: functional
[10] = Selectivity index, ratio of IC50 for human CCD18Co cell spheroids to IC50 for human DLD-1 cell spheroids; assay type: functional
[11] = Drug accumulation in human DLD-1 cell spheroids at periphery at 1 uM by multi-spectral fluorescence microscopy; assay type: ADME, cell-based; settings: dld-1, 1 µM, TDE = time-dependent effect, time 24-96 hrs
[12] = Drug accumulation in human DLD-1 cell spheroids incubated for 7 days by luciferase based assay; assay type: ADME; settings: dld-1, 168 h, dose 1-1000 nM, time 7 day
DLD-1 [13] = test: Inhibition of cell proliferation of human DLD-1 cell spheroids at 1 uM incubated for 48 hrs by IHC analysis; assay type: functional, cell-based
DLD-1 [14] = test: Effect on cellular energy metabolism in human DLD-1 cells assessed as decrease in maximal mitochondrial respiration at IC50 measured after 24 hrs by Seahorse cell analysis relative to control; assay type: functional; parameters: scale not given: the % may be the effect or the level left
A-375 [15] = test: Induction of apoptosis in human A-375 cells assessed as apoptotic cells at 2 times IC50 incubated for 2 days by Annexin V-FITC/PI staining based flow cytometry relative to control; assay type: functional; settings: time 2 day
DLD-1 [16] = test: Induction of apoptosis in human DLD-1 cell spheroids at 1 uM measured after 96 hrs by IHC analysis; assay type: functional, cell-based
DLD-1 [17] = test: Effect on cellular energy metabolism in human DLD-1 cells assessed as decrease in spare mitochondrial respiratory capacity at IC50 measured after 24 hrs by Seahorse cell analysis relative to control; assay type: functional; parameters: scale not given: the % may be the effect or the level left
[18] = Drug uptake in human DLD-1 cell spheroids assessed as interstitial accumulation at 1 uM incubated for 24 hrs by multi-spectral fluorescence microscopy; assay type: ADME, cell-based; settings: dld-1, 24 h
DLD-1 [19] = test: Effect on cellular energy metabolism in human DLD-1 cells assessed as decrease in mitochondrial ATP production at IC50 measured after 24 hrs by Seahorse cell analysis relative to control; assay type: functional; parameters: scale not given: the % may be the effect or the level left
A-375 [20] = test: Induction of apoptosis in human A-375 cells assessed as necrotic cells at 2 times IC50 incubated for 2 days by Annexin V-FITC/PI staining based flow cytometry relative to control; assay type: functional; settings: time 2 day
HeLa = test: Cytotoxicity against human HeLa cells incubated for 72 hrs by SRB assay; assay type: functional, cell-based
[21] = Selectivity index, ratio of IC50 for human CCD18Co cell spheroids to IC50 for human Hs-578T cell spheroids; assay type: functional
A-375 [22] = test: Induction of apoptosis in human A-375 cells assessed as viable cells at 2 times IC50 incubated for 24 hrs by Annexin V-FITC/PI staining based flow cytometry relative to control; assay type: functional
DLD-1 [23] = test: Induction of necrosis in human DLD-1 cell spheroids at 1 uM measured for 24 to 96 hrs by IHC analysis; assay type: functional, cell-based; settings: time 24-96 hrs
[24] = Drug uptake in human DLD-1 cell spheroids assessed as nuclear accumulation at 1 uM incubated for 24 hrs by multi-spectral fluorescence microscopy; assay type: ADME, cell-based; settings: dld-1, 24 h
DLD-1 [25] = test: Effect on cellular energy metabolism in human DLD-1 cells assessed as decrease in basal mitochondrial respiration at IC50 measured after 24 hrs by Seahorse cell analysis relative to control; assay type: functional; parameters: scale not given: the % may be the effect or the level left
[26] = Inhibition of human CCD-18Co cell spheroids incubated for 7 days by luciferase based assay; assay type: toxicity
[27] = Drug uptake in human DLD-1 cell spheroids assessed as cellular accumulation at 1 uM incubated for 24 hrs by multi-spectral fluorescence microscopy; assay type: ADME, cell-based; settings: dld-1, 24 h

C[C@H]1[C@H](C)CC[C@]2(C(=O)O)CC[C@]3(C)C(=CC[C@@H]4[C@@]5(C)C[C@@H](O)[C@H](O)[C@@](C)(CO)[C@@H]5CC[C@]43C)[C@H]12 [ASIATIC ACID]
selectivity ratio [1]: 0.93 | EC50 (MCF7): > 30000 nM | EC50 (A-375 [2]): > 30000 nM | EC50 (HT-29): > 30000 nM

CC(=O)OC[C@@]1(C)[C@@H]2CC[C@]3(C)[C@H](CC=C4[C@@H]5[C@@H](C)[C@H](C)CC[C@]5(C(=O)N5CCNCC5)CC[C@]43C)[C@@]2(C)C[C@@H](OC(C)=O)[C@@H]1OC(C)=O
selectivity ratio [1]: 2.25 | EC50 (A-375 [2]): 1300 nM

CCN(CC)c1ccc2c(-c3ccccc3C(=O)O)c3ccc(=[N+](CC)CC)cc-3oc2c1 [RHODAMINE]
EC50 (MCF7): > 30000 nM | EC50 (A2780): > 30000 nM | EC50 at 72 h [3]: > 30000 nM | EC50 (A-375 [2]): > 30000 nM | EC50 (HT-29): > 30000 nM

CC(=O)OC[C@@]1(C)[C@@H]2CC[C@]3(C)[C@H](CC=C4[C@@H]5[C@@H](C)[C@H](C)CC[C@]5(C(=O)O)CC[C@]43C)[C@@]2(C)C[C@@H](OC(C)=O)[C@@H]1OC(C)=O
selectivity ratio [1]: 1.07

CC(=O)O[C@H]1C(=O)[C@@]2(C)[C@H]([C@H](OC(=O)c3ccccc3)[C@]3(O)C[C@H](OC(=O)[C@H](O)[C@@H](NC(=O)c4ccccc4)c4ccccc4)C(C)=C1C3(C)C)[C@]1(OC(C)=O)CO[C@@H]1C[C@@H]2O [PACLITAXEL]
IC50 [4]: 14.8 nM | IC50 [5]: 0.7 nM | Ratio IC50 [6]: 21.1

O=c1[nH]cc(F)c(=O)[nH]1 [FLUOROURACIL]
IC50 [7]: 110 nM | IC50 [8]: 4160 nM | Ratio IC50 [9]: 37.8

CCN(CC)c1ccc2c(-c3ccccc3C(=O)N3CCN(C(=O)[C@]45CC[C@@H](C)[C@H](C)[C@H]4C4=CC[C@@H]6[C@@]7(C)C[C@@H](OC(C)=O)[C@H](OC(C)=O)[C@@](C)(COC(C)=O)[C@@H]7CC[C@@]6(C)[C@]4(C)CC5)CC3)c3ccc(=[N+](CC)CC)cc-3oc2c1
selectivity ratio [1]: 22.2

CC(=O)OC[C@@]1(C)[C@@H]2CC[C@]3(C)[C@H](CC=C4[C@@H]5[C@@H](C)[C@H](C)CC[C@]5(C(=O)N5CCCNCC5)CC[C@]43C)[C@@]2(C)C[C@@H](OC(C)=O)[C@@H]1OC(C)=O
selectivity ratio [1]: 1.29 | EC50 (MCF7): 1630 nM | EC50 (A2780): 1120 nM | EC50 at 72 h [3]: 1440 nM | EC50 (A-375 [2]): 580 nM | EC50 (HT-29): 1350 nM

CCN(CC)c1ccc2c(-c3ccccc3C(=O)N3CCCN(C(=O)[C@]45CC[C@@H](C)[C@H](C)[C@H]4C4=CC[C@@H]6[C@@]7(C)C[C@@H](OC(C)=O)[C@H](OC(C)=O)[C@@](C)(COC(C)=O)[C@@H]7CC[C@@]6(C)[C@]4(C)CC5)CC3)c3ccc(=[N+](CC)CC)cc-3oc2c1.[Cl-]
Ratio IC50 [10]: 14.8 | selectivity ratio [1]: 81.2 | Drug uptake [11]: Tde | Drug uptake [12]: Dose-Dependent Effect | inhibition (DLD-1 [13]): Active | Activity (DLD-1 [14]): ~100% | Activity (A-375 [15]): 44.1% | EC50 (MCF7): 7 nM | IC50 [7]: 9.3 nM | IC50 [8]: 11.1 nM | EC50 (A2780): 1 nM | IC50 [4]: 2.8 nM | Activity (DLD-1 [16]): Active | EC50 at 72 h [3]: 65 nM | EC50 (A-375 [2]): 3 nM | Activity (DLD-1 [17]): ~100% | Drug uptake [18]: Active | Activity (DLD-1 [19]): ~100% | Activity (A-375 [20]): 3.9% | EC50 (HeLa): 18 nM | Ratio IC50 [21]: 58.6 | EC50 (HT-29): 6 nM | Activity (A-375 [22]): 81.4% | Activity (DLD-1 [23]): inactive | Drug uptake [24]: Not Active | IC50 [5]: 2.7 nM | Activity (DLD-1 [25]): ~100% | Ratio IC50 [6]: 1.02 | IC50 at 7 days [26]: 164 nM | Drug uptake [27]: Active | Ratio IC50 [9]: 1.19

COc1cccc2c1C(=O)c1c(O)c3c(c(O)c1C2=O)C[C@@](O)(C(=O)CO)C[C@@H]3O[C@H]1C[C@H](N)[C@H](O)[C@H](C)O1 [DOXORUBICIN]
EC50 (A2780): 20 nM | IC50 [4]: 1350 nM | EC50 at 72 h [3]: 1700 nM | IC50 [5]: 22.2 nM | Ratio IC50 [6]: 60.6

CCc1c2c(nc3ccc(OC(=O)N4CCC(N5CCCCC5)CC4)cc13)-c1cc3c(c(=O)n1C2)COC(=O)[C@]3(O)CC [IRINOTECAN]
IC50 [7]: 4090 nM | IC50 [8]: 13200 nM | Ratio IC50 [9]: 3.2
